Laboratory results: paper PMC6481345, “A novel anti-melanoma SRC-family kinase inhibitor” (Oncotarget, 2019)

Columns and labels:
phospho-SHP2 Y542 = test: Western blot, phospho-SHP2; assay type: cell-based, human; conditions: melanoma cell lines
Protocol: (§1) We used standard techniques to identify changes in intracellular signaling in response to various treatments. Briefly, melanoma cells were incubated with test compounds, using DMSO as a control, collected by scraping on ice, and lysed in RIPA buffer supplemented with protease and phosphatase inhibitors (MA #78428, and #78425, respectively, Thermo Fisher Scientific, Waltham, MA). Protein concentrations were measured with the BioRad kit (Bio-Rad Laboratories, Hercules, CA), SDS sample buffer was added, extracts were heated at 95°C, sonicated and centrifuged. Cell extracts (20 µg/lane) were fractionated in 3%–8% or 4–12 % tris-acetate gel (NP0006, NuPAGE Life Technologies). […]

YUSIK melanoma tumors = test: In vivo tumor growth, YUSIK melanoma xenograft; conditions: YUSIK tumor bearing nude mice, 20 mg/kg daily intraperitoneal from day 12, vs solvent control; 6 mice; p = 0.0006
Protocol: (§2) All procedures involving animals were approved by the Institutional Animal Care and Use Committee of Yale University. YUSIK melanoma cells were grown to 80% confluency in 150 cm^2 flasks, detached by trypsinization, washed with PBS, and cell pellets were resuspended in 1:1 mixture of PBS and matrigel (BD Bioscience Cat #354234) to sustain cell viability. The cells (4 × 10^6/100 µl) were injected subcutaneously in the back flank of six weeks old female athymic Nude-Foxn1nu (nu/nu) mice (Charles River Laboratories, Wilmington, MA), and tumors were measuring daily with a caliper (length, width, and depth). When tumors reached palpable size (between 25–40 mm^3), the animals were randomized by tumor size and body weigh into two groups and were daily injected intraperitoneally with SAB298 (batch #AU0588-91, Sabila Biosciences LLC, 5 Overlook Road, New City, New York, 10956) or vehicle as controls (N = 6/each). […] The vehicle contained the same reagents but without SAB298.

HOP-62 NSCLC cell line = test: NCI-60 human tumor cell line screen; assay type: cell-based
Protocol: (§3) We first tested the impact of SAB298 on NCI-60 human tumor cell lines that included eight melanomas (performed by the NCI Development Therapeutics Program).
(§4) SFK-inhibitors were tested on a panel of NCI-60 cell lines (Supplementary Table 1) and 30 melanoma cell lines and NBMEL, i.e., normal human melanocytes isolated from a newborn foreskin (Table 1 and Supplementary Table 2). The Yale melanoma cohort designated YU originated from tumors excised to improve patient quality of life and used with participants’ informed consent according to Health Insurance Portability and Accountability Act (HIPAA) regulations with Human Investigative Committee protocol.
(§5) Supplementary Table 1: Cellular activity of SAB298 in a Panel of NCI-60 cancer cell lines*
(§6) measured protein; and TI is LC50/GI50.
(§7) Supplementary Table 2: Description of Melanoma Cell lines. See Supplementary_Table_2

[1] = tested on: UACC-257 melanoma cell line; test: NCI-60 human tumor cell line screen; assay type: cell-based
Protocol: as §3, §4, §5, §6, §7

[2] = tested on: SK-MEL-2 melanoma cell line; test: NCI-60 human tumor cell line screen; assay type: cell-based
Protocol: as §3, §4, §5, §6, §7

[3] = tested on: MALME-3M melanoma cell line; test: NCI-60 human tumor cell line screen; assay type: cell-based
Protocol: as §3, §4, §5, §6, §7

[4] = Clinical signs of toxicity in tumor bearing mice; assay type: in vivo; conditions: daily intraperitoneal SAB298
Protocol: as §2
The tumors size and body weight were measured daily and the mice were checked for clinical signs of toxicity, such as lethargy, neurological symptoms, diarrhea, discharges, morbidity, piloerection and weight loss (>20%).

LCK = LCK (Homo sapiens, UniProt P06239); test: KiNativ in situ kinase profiling in melanoma cell lysates; assay type: binding; design: we tested the endogenous kinome response to SAB298; host or cells: YUSIV or YUSIK melanoma cell lysate; conditions: LCK in YUSIV lysate; 3-point dose response
Protocol: The effect of SAB298 on a panel of 36 recombinant kinases, was screed with the radioisotope filter binding assay employing 10 concentrations of the compound with 10 µM ATP (Reaction Biology Corporation, Malvern, PA). In addition, we tested the endogenous kinome response to SAB298 (0.05 µM, 0.5 µM and 5 µM) in lysates from two melanoma cell lines (YUSIV and YUSIK) employing the KiNativ® platform (ActivX Biosciences Inc., La Jolla, CA). KiNativ® is a robust, high performance mass spectrometry (LC-MS^2) assay that uses biotinylated probes to measure relevant changes in the affinity to the ATP-binding sites of 205 native kinases as a function of cellular context. We also validated SAB298 effect on the activity of SRC-family kinases by probing for phosphorylated Y416, the marker of activated SFKs, with anti-IEDNEpYTAR antibodies (also known as Y419, #2101, Cell Signaling Technology, Beverly, MA). In some cases the cells were incubated overnight with 20 µM proteasome inhibitor MG-132 (CAS 133407-82-6, Millipore Sigma, Burlington, MA) to rescue degradation.

pERK T202/Y204 = test: Western blot, phospho-MEK and phospho-ERK; assay type: cell-based, human; conditions: melanoma cells; 0.5 µM or 1 µM, 2-72 hours
Protocol: We used standard techniques to identify changes in intracellular signaling in response to various treatments. Briefly, melanoma cells were incubated with test compounds, using DMSO as a control, collected by scraping on ice, and lysed in RIPA buffer supplemented with protease and phosphatase inhibitors (MA #78428, and #78425, respectively, Thermo Fisher Scientific, Waltham, MA). Protein concentrations were measured with the BioRad kit (Bio-Rad Laboratories, Hercules, CA), SDS sample buffer was added, extracts were heated at 95°C, sonicated and centrifuged. Cell extracts (20 µg/lane) were fractionated in 3%–8% or 4–12 % tris-acetate gel (NP0006, NuPAGE Life Technologies). We probed with the following primary antibodies: phospho-SRC Tyr416 (CST #2101S), pSRC Tyr527 (#2105), SRC (#2108), pPI3K p85 Y458/p55 Y199 (#4228), LYN (C13F9, #2796), FYN (#4023), phospho-MEK1/2 pSer217/221 (#9121), MEK1/2, phospho-ERK2 pThr202/Tyr204 (#9101), ERK1/2 (#9107), phospho-p38 kinase T180/Y182 (#9216), p38 kinase (#9212), PP2A (#2259), pSHP2 Y542 (#3751), SHP2 (D50F2, #3397), ERBB2 (D8F12 XP(R), #4290), phospho-ERBB2 Y1196 (D66B7 #6942), MYC (D84C12, #5605); GAPDH (14C10, #2118), all from Cell Signaling Technology, Beverly, MA; phospho-PP2A Y307 (AF3989), and MITF (clone D5, #AF5769) from R&D Systems, Inc., Minneapolis, MN; p27KIP1 (#10241) and YES (#610375) from BD Biosciences, San Jose, CA; Cyclin D1 (#04-221) and β-actin (mouse mAb A5316) from MilliporeSigma, St. Louis, MO; PI3K Antibody (p85 alpha, NSJ R30480) from Bioreagents, 9921 Carmel Mountain Rd #352, San Diego, CA. All antibodies were used at the concentrations recommended by the manufacturers.

pp38 T180/Y182 = test: Western blot, phospho-p38; assay type: cell-based, human; conditions: YUSIV melanoma cells
Protocol: as §1

[5] = 50% growth inhibition, five dose, average of 2 experiments
[6] = cytotoxic concentration, 50% reduction in measured protein, read-out: LC50 (the source's name)

Sequence of LCK (P06239 whole entry): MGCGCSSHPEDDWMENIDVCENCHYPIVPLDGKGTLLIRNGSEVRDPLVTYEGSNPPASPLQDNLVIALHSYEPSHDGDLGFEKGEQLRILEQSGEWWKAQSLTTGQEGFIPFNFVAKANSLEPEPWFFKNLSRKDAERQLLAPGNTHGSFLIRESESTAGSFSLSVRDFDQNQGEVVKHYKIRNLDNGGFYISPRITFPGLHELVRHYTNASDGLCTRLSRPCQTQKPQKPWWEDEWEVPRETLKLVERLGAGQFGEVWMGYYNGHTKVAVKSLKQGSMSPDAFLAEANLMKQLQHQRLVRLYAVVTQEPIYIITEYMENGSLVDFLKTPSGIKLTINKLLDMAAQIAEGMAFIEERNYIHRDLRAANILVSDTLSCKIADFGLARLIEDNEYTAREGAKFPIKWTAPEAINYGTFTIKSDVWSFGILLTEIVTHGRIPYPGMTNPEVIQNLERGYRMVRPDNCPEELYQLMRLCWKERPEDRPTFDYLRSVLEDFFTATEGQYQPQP

## Nc1ncnc2c1c(-c1ccc(Oc3ccccc3)cc1)nn2C[C@@H]1SSC[C@@H]1O [SAB298, (3S, 4S)-3-((4-amino-3-(4-phenoxyphenyl)-1H-pyrazolo[3,4-d]pyrimidin-1-yl)methyl)-1,2-dithiolan-4-ol]
phospho-SHP2 Y542
  phospho-SHP2 Y542 level: inactivated phospho-SHP2 Y542 in YUSIK, YUROB and YUSOC melanoma cell lines, but not in YUGASP
YUSIK melanoma tumors
  Tumor growth: significantly suppressed the growth
HOP-62 NSCLC cell line; [5]
  GI50: 227 nM
HOP-62 NSCLC cell line; [6]
  CC50: 23.6 µM
[1]; [5]
  GI50: 374 nM
[1]; [6]
  CC50: 93.5 µM
[2]; [5]
  GI50: 212 nM
[2]; [6]
  CC50: 19.4 µM
[3]; [5]
  GI50: 550 nM
[3]; [6]
  CC50: > 100 µM
[4]
  Clinical signs of toxicity (lethargy, neurological symptoms, diarrhea, discharges, morbidity, piloerection, weight loss >20%): None of them or any other abnormal indication were observed
LCK
  IC50: 1400 nM
pERK T202/Y204
  phospho-MEK and phospho-ERK (pERK T202/Y204) levels: increased, rather than decreased
pp38 T180/Y182
  pp38 T180/Y182 level: induced p38 T180/Y182 phosphorylation
